One assay deals with Plasmodium falciparum 3D7. In words: P. falciparum 3D7 asexual blood stage assay, Assay Procedure Version 1 (SYBR green readout). Type of assay: cell-based. The following applies: 3D7, Erythrocyte, Version 1 of the assay procedure (no asterisk), 72 h incubation in infected erythrocytes, 10,000 nM to 0.51 nM. The protocol:
Asexual Blood Stage Assay
The assay used to measure the effect of test compounds on a bloodstream stage of Plasmodium falciparum 3D7 strain employs SYBR green as the readout. This is a dye that binds to double stranded deoxyribonucleic acid (DNA) with a resulting increase in fluorescence, allowing detection of P. falciparum DNA in infected erythrocytes, and thereby providing a measure of parasite growth and propagation.
P. falciparum Culture Maintenance
Erythrocytes (A+blood) were prepared for both parasite culture and assay by washing 4 times with incomplete media (15.9 g RPMI 1640 (25 mM HEPES, L-glutamine), 1 g NaHCO3, 2 g glucose, 400 μL gentacin (500 mg/mL), 2 mL hypoxanthine solution (13.6 g/L in 0.1M NaOH pH 7.3) in 1 litre of media). The cells were centrifuged at 1800 g for 5 minutes, before decanting the supernatant and re-suspending in fresh incomplete media. On the final wash, the cells were re-suspended in complete media (incomplete media with 5 g/L AlbumaxII), and centrifuged at 1800 g for 3 minutes. This cell sediment was treated as 100% haematocrit.
P. falciparum 3D7 was cultured in erythrocytes at 5% haematocrit in complete media at 37° C. (1% O2, 3% CO2, balance N2). Cultures were split on a weekly basis to achieve a 1% parasitaemia in erythrocites at 5% haematocrit in fresh media. Culture media is replaced by fresh media every other day (2 times during the week).
Assay Procedure—Version 1
On day 1, test compounds were added to assay plates using Echo dispensing technology (3 fold dilution and 10 points titration). 50 nL of each compound dilution was added to 50 μL of culture (5% haematocrit, 0.5% parasitaemia) and incubated for 72 h at 37° C. (1% O2, 3% CO2, balance N2). Final concentrations of test compounds ranged from 10,000 nM to 0.51 nM, in […].
On day 4, 10 μL SYBR green (Invitrogen S7563 supplied as 10,000×concentrate in DMSO) pre-diluted to 3× concentrate with Lysis buffer (20 mM Tris pH 7.9, 5% EDTA, 0.16% w/v, 1.6% TX100 v/v) was added to the cultures and incubated in the dark, overnight, at room temperature.
On day 5, fluorescent signal was measured using a BioTek plate reader (excitation 485 nm, emission 528 nm). All data were processed using IDBS ActivityBase. Raw data were converted into percent inhibition through linear regression by setting the high inhibition control as 100% and the no inhibition control as 0%. Quality control criteria for passing plates were as follows: Z′>0.5, S:B>3, % CV(no inhibition control)<15. The formula used to calculate Z′ is
All EC50 curve fitting was undertaken using the following 4 parametric equation:
[formula] where A=% inhibition at bottom; B=% inhibition at top; C=EC50; D=slope; x=inhibitor concentration; and y=% inhibition. […] Assay Procedure—Version 2
As for `C[C@@]1(c2cccc(Nc3ccc(F)c(Cl)c3)c2Cl)CC(=O)N(C2CCOCC2)C(=N)N1` [Example 167, (6S)-6-[2-Chloro-3-(3-chloro-4-fluoroanilino)phenyl]-2-imino-6-methyl-3-(tetrahydropyran-4-yl)hexahydropyrimidin-4-one], the IC50 (usually the concentration at which inhibition is half-maximal) came to 627 nM.

In turn, `C[C@@]1(c2cccc(Nc3ccc(F)cc3)c2Cl)CC(=O)N([C@@H]2CCOC2)C(=N)N1` (relative stereo) [Example 169, (6S)-6-[2-Chloro-3-(4-fluoro-anilino)phenyl]-2-imino-6-methyl-3-[(3R*)-tetrahydro-furan-3-yl]hexahydropyrimidin-4-one] yielded an IC50 of 323 nM. This IC50 is about 1.9-fold lower than that of the compound before.

Turning to `C[C@@]1(c2cccc(Nc3ccccc3)c2Cl)CC(=O)N(CC2CCOCC2)C(=N)N1` [Example 3, (6S)-6-(3-Anilino-2-chloro-phenyl)-2-imino-6-methyl-3-(tetrahydropyran-4-ylmethyl)-hexahydropyrimidin-4-one], the IC50 was 80 nM.

Compound `C[C@@]1(c2cccc(Nc3ccc(F)cc3)c2Cl)CC(=O)N([C@@H]2CCCOC2)C(=N)N1` (relative stereo) [Example 190, (6S)-6-[2-Chloro-3-(4-fluoro-anilino)phenyl]-2-imino-6-methyl-3-[(3R* or 3S)-tetrahydropyran-3-yl]-hexahydropyrimidin-4-one] returned an IC50 of 2580 nM. Against the preceding compound, the IC50 is about 32-fold higher.

In the case of `COc1cc(Nc2cccc([C@]3(C)CC(=O)N(C4CCOCC4)C(=N)N3)c2Cl)cc(OC)c1` [Example 161, (6S)-6-[2-Chloro-3-(3,5-dimethoxyanilino)phenyl]-2-imino-6-methyl-3-(tetrahydro-pyran-4-yl)hexahydropyrimidin-4-one], half-maximal inhibition (IC50) required 1680 nM.

`C[C@@]1(c2cccc(Nc3ccc(Cl)c(F)c3)c2Cl)CC(=O)N(C2CCOCC2)C(=N)N1` [Example 33, (6S)-6-[2-Chloro-3-(4-chloro-3-fluoroanilino)phenyl]-2-imino-6-methyl-3-(tetrahydropyran-4-yl)hexahydropyrimidin-4-one] showed an IC50 of 1810 nM.

`C[C@@]1(c2cccc(Nc3ccc(C#N)cc3)c2Cl)CC(=O)N(C2CCOCC2)C(=N)N1` [Example 18, 4-{2-Chloro-3-[(4S)-2-imino-4-methyl-6-oxo-1-(tetrahydro-pyran-4-yl)hexahydropyrimidin-4-yl]anilino}benzonitrile] showed an IC50 of 534 nM. This IC50 lies about 3.4-fold lower than the previous one.

As to `C[C@@]1(c2cccc(Nc3cc(C(F)(F)F)cnc3Cl)c2Cl)CC(=O)N(C2CCOCC2)C(=N)N1` [Example 32, (6S)-6-(2-Chloro-3-{[2-chloro-5-(trifluoromethyl)pyridin-3-yl]amino}phenyl)-2-imino-6-methyl-3-(tetrahydropyran-4-yl)hexahydropyrimidin-4-one], 851 nM corresponded to half-maximal inhibition (IC50).

Consider `Cc1ccccc1Nc1cccc([C@]2(C)CC(=O)N(C3CCOCC3)C(=N)N2)c1Cl` [Example 165, (6S)-6-[2-Chloro-3-(2-methyl-anilino)phenyl]-2-imino-6-methyl-3-(tetrahydropyran-4-yl)hexahydropyrimidin-4-one], for which the IC50 worked out at 890 nM.

Regarding `C[C@@]1(c2cccc(Nc3cc(OC(F)(F)F)ccc3F)c2Cl)CC(=O)N(C2CCOCC2)C(=N)N1` [Example 22, (6S)-6-{2-Chloro-3-[2-fluoro-5-(trifluoromethoxy)anilino]-phenyl}-2-imino-6-methyl-3-(tetrahydropyran-4-yl)-hexahydropyrimidin-4-one], the IC50 was 1520 nM.

The compound `C[C@@]1(c2cccc(Nc3ccc(C(F)(F)F)nc3)c2Cl)CC(=O)N(C2CCOCC2)C(=N)N1` [Example 31, (6S)-6-(2-Chloro-3-{[6-(trifluoromethyl)pyridin-3-yl]amino}phenyl)-2-imino-6-methyl-3-(tetrahydropyran-4-yl)hexahydropyrimidin-4-one] had a half-maximal inhibitory concentration (IC50) of 430 nM.

As to `C[C@@]1(c2cccc(Nc3ccnc(F)c3)c2Cl)CC(=O)N(C2CCOCC2)C(=N)N1` [Example 29, (6S)-6-{2-Chloro-3-[(2-fluoro-pyridin-4-yl)amino]phenyl}-2-imino-6-methyl-3-(tetrahydro-pyran-4-yl)hexahydropyrimidin-4-one], the IC50 was determined as 539 nM.

In the case of `Cc1ccc(Nc2c(F)ccc([C@]3(C)CC(=O)N(C4CCOCC4)C(=N)N3)c2Cl)cn1` [Example 207, (6S)-6-{2-Chloro-4-fluoro-3-[(6-methylpyridin-3-yl)amino]phenyl}-2-imino-6-methyl-3-(tetrahydropyran-4-yl)hexahydropyrimidin-4-one], half-maximal inhibition (IC50) was put at 659 nM.

A further assay relates to Plasmodium falciparum 3D7. Put plainly: P. falciparum 3D7 asexual blood stage assay, Assay Procedure Version 2 (SYBR green readout). The assay is classed as cell-based. The following applies: Plasmodium falciparum, 3D7, Erythrocyte, 72 h, Version 2 of the assay procedure (asterisk *); 72 h incubation in infected erythrocytes; 50,000 nM to 15 nM. Put shortly: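 Parasite growth read as DNA fluorescence (SYBR green lysis overnight, ex 485/em 528 nm) after 72 h drug exposure of 3D7-infected erythrocytes at 0.5% parasitaemia, 5% haematocrit, 37 °C under 1% O2/3% CO2. Compounds tested 15–50,000 nM final, 0.5% DMSO; normalised to mefloquine (100%) and DMSO (0%), biphasic two-site EC50 fitting.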
`C[C@@H]1C[C@H](N2C(=N)N[C@](C)(c3cccc(Nc4ccc(C5CC5)nn4)c3Cl)CC2=O)CCO1` (relative stereo) [Example 200, (6S)-6-{2-Chloro-3-[(6-cyclo-propylpyridazin-3-yl)amino]-phenyl}-2-imino-6-methyl-3-[(2R*,4R*)-2-methyltetrahydro-pyran-4-yl]hexahydropyrimidin-4-one] registered an IC50 of 45 nM.

The compound `C[C@@]1(c2cccc(Nc3cncc4ccccc34)c2Cl)CC(=O)N(C2CCOCC2)C(=N)N1` [Example 46, (6S)-6-[2-Chloro-3-(isoquinolin-4-ylamino)phenyl]-2-imino-6-methyl-3-(tetrahydropyran-4-yl)hexahydropyrimidin-4-one] returned an IC50 of 425 nM.

As to `Cc1cnc(Nc2cccc([C@]3(C)CC(=O)N(C4CCOCC4)C(=N)N3)c2Cl)cn1` [Example 44, (6S)-6-{2-Chloro-3-[(5-methyl-pyrazin-2-yl)amino]phenyl}-2-imino-6-methyl-3-(tetrahydro-pyran-4-yl)hexahydropyrimidin-4-one], half-maximal inhibition (IC50) required 815 nM.

For `C[C@@]1(c2cccc(Nc3ccc(CC(F)(F)F)nc3)c2Cl)CC(=O)N(C2CCOCC2)C(=N)N1` [Example 119, (6S)-6-(2-Chloro-3-{[6-(2,2,2-trifluoroethyl)pyridin-3-yl]-amino}phenyl)-2-imino-6-methyl-3-(tetrahydropyran-4-yl)hexahydropyrimidin-4-one], the IC50 was determined as 237 nM.

Regarding `C[C@@]1(c2cccc(Nc3ccc(OC(F)(F)F)cc3)c2Cl)CC(=O)N(C2CCOCC2)C(=N)N1` [Example 64, (6S)-6-{2-Chloro-3-[4-(trifluoromethoxy)anilino]-phenyl}-2-imino-6-methyl-3-(tetrahydropyran-4-yl)-hexahydropyrimidin-4-one], the IC50 turned out to be 1760 nM. This IC50 lies about 7.4-fold higher than the previous one.

Regarding `C[C@@]1(c2cccc(Nc3cccnc3OC(F)F)c2Cl)CC(=O)N(C2CCOCC2)C(=N)N1` [Example 97, (6S)-6-(2-Chloro-3-{[2-(difluoromethoxy)pyridin-3-yl]-amino}phenyl)-2-imino-6-methyl-3-(tetrahydropyran-4-yl)hexahydropyrimidin-4-one], 216 nM corresponded to half-maximal inhibition (IC50).

With `C[C@@]1(c2cccc(Nc3ccc(C(F)(F)F)cc3C#N)c2Cl)CC(=O)N(C2CCOCC2)C(=N)N1` [Example 83, 2-{2-Chloro-3-[(4S)-2-imino-4-methyl-6-oxo-1-(tetrahydro-pyran-4-yl)hexahydropyrimidin-4-yl]anilino}-5-(trifluoro-methyl)benzonitrile], the IC50 was determined as 357 nM.

`C[C@@]1(c2cccc(Nc3ccc(C#N)cc3OC(F)F)c2Cl)CC(=O)N(C2CCOCC2)C(=N)N1` [Example 96, 4-{2-Chloro-3-[(4S)-2-imino-4-methyl-6-oxo-1-(tetrahydro-pyran-4-yl)hexahydropyrimidin-4-yl]anilino}-3-(difluoro-methoxy)benzonitrile] yielded an IC50 of 195 nM.

The assay is the same for the next values; noted with them: Version 2 of the assay procedure (asterisk *); 72 h incubation in infected erythrocytes; 50,000 nM to 15 nM.
Take `CC1(C)CC(N2C(=N)N[C@](C)(c3cccc(Nc4ccc(OC(F)F)nc4)c3Cl)CC2=O)CCO1` (single isomer, unassigned) [Example 144, (6S)-6-(2-Chloro-3-{[6-(difluoromethoxy)pyridin-3-yl]-amino}phenyl)-3-[(4S*)-2,2-dimethyltetrahydropyran-4-yl]-2-imino-6-methylhexahydro-pyrimidin-4-one]: the IC50 amounted to 493 nM.

The record behind these values is patent publication US11479546B2, “Antimalarial hexahydropyrimidine analogues” (UCB Biopharma SRL, priority 2018, dated 2022).
